According to patent publication US20040076974A1, “Liver necrosis predictive genes” (priority 2002, published 2004):
Where “and” joins values, the source holds several entries; their conditions need not be identical. Equal entries are not always repeated. Where two headings read alike, the source gives them in different places.

Experiments:
Sprague Dawley rats = system: Sprague Dawley rats
Outline: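 Toxicity calls (necrosis present or absent at 72 h) and histopathology scores were correlated with tissue gene expression from Crl:CD Sprague Dawley rats. Animals, usually 3 treated with compound by i.p. route and 3 given vehicle, were killed at 6, 24 or 72 h and tissues frozen immediately in liquid nitrogen.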

[1] = system: toxicologically relevant rat genes (rat CT array)
[2] = 24 h, treatment/control, dose 2, listed as CHEX

## C[C@@H]1C[C@@H]([C@H](O)CC2CC(=O)NC(=O)C2)C(=O)[C@@H](C)C1 [cycloheximide]
Sprague Dawley rats; 72 h, dose 0.5
  Liver Toxicity Necrosis Classification: no
Sprague Dawley rats; 72 h; dose 2; animals 2257-2259
  Liver Toxicity Necrosis Classification: no
Sprague Dawley rats; compound-dose group CHEX 0.5; at 72 h
  Liver Toxicity Necrosis Classification: no
Sprague Dawley rats; compound-dose group CHEX 2; at 72 h
  Liver Toxicity Necrosis Classification: no
Sprague Dawley rats; compound-dose group at 72 h, dose 0.5
  Liver Toxicity Necrosis Classification: no
Sprague Dawley rats; compound-dose group at 72 h, dose 2
  Liver Toxicity Necrosis Classification: no
Sprague Dawley rats; compound-dose group at 72 h; dose 2
  Liver Toxicity Necrosis Classification: no
Sprague Dawley rats; rat, intraperitoneal, dose 0.5 mg/kg, 72 hours after treatment
  Liver Necrosis: no
Sprague Dawley rats; rat, intraperitoneal, dose 0.5 mg/kg, 72 hours; 1 = not remarkable, 2 and higher increasing severity
  Score (histopathology liver necrosis severity score): 1
Sprague Dawley rats; rat, intraperitoneal, dose 2 mg/kg, 72 hours after treatment
  Liver Necrosis: no
Sprague Dawley rats; rat, intraperitoneal, dose 2 mg/kg, 72 hours; 1 = not remarkable, 2 and higher increasing severity
  Score (histopathology liver necrosis severity score): 1
[1]; 24 h
  Aflatoxin B1 aldehyde reductase expression: 0.3081 and 0.5569
[1]; [2]
  3-hydroxyisobutyrate dehydrogenase expression: 0.7822 and 0.6854
  14-3-3 zeta expression: 1.308 and 1.217
  17-beta hydroxysteroid dehydrogenase, type 2 expression: 0.8086 and 0.8289
  60S ribosomal protein L6 expression: 4.046 and 3.164
  ATPase inhibitor (rat mitochondrial IF1 protein) expression: 1.104
  Alpha 1 - inhibitor III expression: 0.1985 and 0.3033
  Alpha-2-macroglobulin expression: 8.537 and 10.8864
  Bax (alpha) expression: 3.909 and 3.079
  Beta-actin expression: 1.582
  Calpactin I heavy chain expression: 1.21 and 1.278
  Carbamyl phosphate synthetase I expression: 2.339 and 1.425
  Carbonic anhydrase III expression: 0.09817 and 0.117
  Cathepsin L, sequence 2 expression: 3.293 and 1.752
  Dynamin-1 (D100) expression: 0.7964 and 0.6968
  Epidermal growth factor expression: 0.7851 and 0.8391
  Equilbrative nitrobenzylthioinosine-sensitive nucleoside transporter expression: 0.434 and 0.4974
  Fas antigen expression: 1.655 and 1.544
  Gadd45 expression: 1.068 and 0.9225
  Gadd153 expression: 2.348 and 2.179
  Gamma-actin, cytoplasmic expression: 2.831 and 2.8
  Glucose-regulated protein 78 expression: 1.943
  Hepatic lipase expression: 0.425 and 0.4085
  ID-1 expression: 1.831 and 1.476
  Insulin-like growth factor I expression: 0.632 and 0.7238
  Insulin-like growth factor binding protein 1 expression: 1.891
  Insulin-like growth factor binding protein 3 expression: 0.6015 and 0.8706
  Integrin beta1 expression: 1.973 and 1.549
  L-gulono-gamma-lactone oxidase expression: 0.1815 and 0.3251
  Matrin F/G expression: 0.6684 and 0.8266
  Monocyte chemotactic protein receptor (CCR2) expression: 1.356
  Organic anion transporter 3 expression: 0.6196 and 0.8226
  Organic cation transporter 3 expression: 3.288 and 2.799
  Ornithine decarboxylase expression: 1.809 and 2.529
  PAR interacting protein expression: 2.494 and 1.775
  Phase-1 RCT 252 expression: 2.109
  Phase-1 RCT-15 expression: 2.098
  Phase-1 RCT-36 expression: 0.9535
  Phase-1 RCT-38 expression: 0.8074 and 1.436
  Phase-1 RCT-40 expression: 0.5868 and 0.6253
  Phase-1 RCT-48 expression: 0.8259
  Phase-1 RCT-50 expression: 3.394 and 1.867
  Phase-1 RCT-78 expression: 0.6678 and 0.6463
  Phase-1 RCT-83 expression: 0.7709 and 0.5883
  Phase-1 RCT-88 expression: 0.5622 and 0.699
  Phase-1 RCT-89 expression: 0.3912 and 0.666
  Phase-1 RCT-92 expression: 0.5483 and 0.6236
  Phase-1 RCT-102 expression: 0.1629 and 0.3219
  Phase-1 RCT-117 expression: 0.5435 and 0.8114
  Phase-1 RCT-128 expression: 0.7358 and 0.5601
  Phase-1 RCT-137 expression: 0.897
  Phase-1 RCT-144 expression: 1.698 and 1.552
  Phase-1 RCT-145 expression: 1.962 and 1.531
  Phase-1 RCT-152 expression: 3.068 and 2.149
  Phase-1 RCT-179 expression: 1.874 and 1.726
  Phase-1 RCT-180 expression: 1.992 and 1.731
  Phase-1 RCT-182 expression: 0.648 and 0.4739
  Phase-1 RCT-189 expression: 0.7556 and 0.7413
  Phase-1 RCT-207 expression: 3.54 and 2.206
  Phase-1 RCT-213 expression: 2.298 and 1.558
  Phase-1 RCT-241 expression: 2.805 and 1.626
  Phase-1 RCT-256 expression: 0.7478
  Phase-1 RCT-264 expression: 0.3258 and 0.288
  Phase-1 RCT-270 expression: 0.3824 and 0.3779
  Phase-1 RCT-271 expression: 0.6863 and 0.7351
  Phase-1 RCT-288 expression: 0.7066 and 0.6813
  Phase-1 RCT-291 expression: 0.9117
  Phase-1 RCT-295 expression: 1.809 and 1.772
  Phase-1 RCT-296 expression: 0.1325 and 0.1028
  Ribosomal protein L13A expression: 3.222 and 2.597
  Ribosomal protein S17 expression: 3.701 and 3.311
  Sodium/bile acid cotransporter expression: 0.2803 and 0.3733
  Transthyretin expression: 0.3341 and 0.2879
  Ubiquitin conjugating enzyme (RAD 6 homologue) expression: 1.788 and 1.624
  c-jun expression: 1.591 and 1.111
  c-myc expression: 1.683 and 1.143
[1]; rat, in vivo
  Paraoxonase 1 expression: 0.4607 and 0.4822
